Results reported in ChEMBL document CHEMBL3997855, “Discovery of Fevipiprant (NVP-QAW039), a Potent and Selective DP2 Receptor Antagonist for Treatment of Asthma” (ACS Med Chem Lett, 2017).

Tests used:
[1] = target: T1, Prostaglandin D2 receptor 2 (Homo sapiens, UniProt Q9Y5Y4); experiment: Antagonist activity at DP2 receptor in human isolated eosinophils assessed as inhibition of DK-PGD2-induced shape change preincubated for 5 mins followed by DK-PGD2 addition measured after 5 mins by flow cytometry
T1 sequence (Q9Y5Y4 whole entry): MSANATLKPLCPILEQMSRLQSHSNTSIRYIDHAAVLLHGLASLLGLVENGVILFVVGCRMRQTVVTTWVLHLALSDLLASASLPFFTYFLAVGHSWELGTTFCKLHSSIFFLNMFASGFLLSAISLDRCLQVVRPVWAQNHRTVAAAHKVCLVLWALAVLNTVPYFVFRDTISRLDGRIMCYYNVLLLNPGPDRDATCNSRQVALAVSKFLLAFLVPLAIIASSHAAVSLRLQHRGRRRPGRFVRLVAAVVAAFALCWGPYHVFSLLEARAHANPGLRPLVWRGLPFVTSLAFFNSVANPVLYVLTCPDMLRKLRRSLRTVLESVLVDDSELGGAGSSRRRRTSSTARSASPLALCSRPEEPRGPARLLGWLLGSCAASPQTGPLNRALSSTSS

Rattus norvegicus [2] = experiment: (§1) In vivo antagonist activity at DP2 receptor in Sprague-Dawley rat DK-PGD2-induced pulmonary eosinophilia mechanistic model assessed inhibition of eosinophilia in broncho alveolar lavage fluid at 0.03 to 0.1 mg/kg, po pretreated for 40 mins starting at 2 hrs post IL-5 administration followed by DK-PGD2 administration measured after 2 hrs; assay type: functional, organism-based
[3] = Fraction unbound in plasma of Sprague-Dawley rat DK-PGD2-induced pulmonary eosinophilia mechanistic model at 0.03 to 0.1 mg/kg, po by equilibrium dialysis method; assay type: ADME, organism-based
[4] = Clearance in Wistar rat at 0.5 mg/kg, iv or 3 mg/kg, po by LC-MS/MS analysis; assay type: ADME, organism-based; conditions: in vivo
[5] = Volume of distribution at steady state in Wistar rat at 0.5 mg/kg, iv or 3 mg/kg, po by LC-MS/MS analysis; assay type: ADME, organism-based; conditions: in vivo, read-out: Vdss
[6] = Half life in Wistar rat at 0.5 mg/kg, iv by LC-MS/MS analysis; assay type: ADME, organism-based; conditions: in vivo
[7] = Oral bioavailability in Wistar rat at 3 mg/kg by LC-MS/MS analysis; assay type: ADME, organism-based; conditions: in vivo
[8] = target: T1, Prostaglandin D2 receptor 2; experiment: Antagonist activity at DP2 receptor in CD4-positive human TH2 cells assessed as inhibition of DK-PGD2-induced IL-5 production after 6 to 8 hrs
[9] = target: T1, Prostaglandin D2 receptor 2; experiment: Antagonist activity at DP2 receptor in CD4-positive human TH2 cells assessed as inhibition of DK-PGD2-induced IL-13 production after 6 to 8 hrs
[10] = target: T1, Prostaglandin D2 receptor 2; experiment: Antagonist activity at DP2 receptor in CD4-positive human TH2 cells assessed as inhibition of PGD2-induced IL-4 production preincubated for 30 mins followed by PGD2 addition measured after 6 hrs
[11] = target: T1, Prostaglandin D2 receptor 2; experiment: Displacement of [3H]NVP-QAW039 from human DP2 receptor expressed in CHO cell membranes by TopCount scintillation assay
[12] = target: T2, Prostaglandin D2 receptor (Homo sapiens, UniProt Q13258); experiment: Antagonist activity at DP1 receptor (unknown origin)
T2 sequence (Q13258 whole entry): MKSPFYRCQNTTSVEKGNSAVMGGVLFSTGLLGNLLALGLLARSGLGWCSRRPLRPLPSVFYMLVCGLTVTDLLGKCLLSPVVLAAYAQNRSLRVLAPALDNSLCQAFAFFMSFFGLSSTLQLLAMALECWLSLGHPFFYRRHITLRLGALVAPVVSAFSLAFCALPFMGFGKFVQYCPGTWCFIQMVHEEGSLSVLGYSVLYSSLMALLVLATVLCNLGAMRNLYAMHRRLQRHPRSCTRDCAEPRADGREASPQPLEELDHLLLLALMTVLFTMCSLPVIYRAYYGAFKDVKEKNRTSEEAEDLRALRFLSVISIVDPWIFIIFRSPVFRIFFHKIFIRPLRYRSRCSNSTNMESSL

[13] = target: Prostaglandin E2 receptor EP2 subtype (Homo sapiens, UniProt P43116); experiment: Antagonist activity at EP2 receptor (unknown origin)
[14] = target: Prostaglandin E2 receptor EP4 subtype (Homo sapiens, UniProt P35408); experiment: Antagonist activity at EP4 receptor (unknown origin)
[15] = target: Prostaglandin F2-alpha receptor (Homo sapiens, UniProt P43088); experiment: Antagonist activity at FP receptor (unknown origin)
Thromboxane A2 receptor = target: T3, Thromboxane A2 receptor (Homo sapiens, UniProt P21731); experiment: Antagonist activity at TP receptor (unknown origin)
T3 sequence (P21731 whole entry): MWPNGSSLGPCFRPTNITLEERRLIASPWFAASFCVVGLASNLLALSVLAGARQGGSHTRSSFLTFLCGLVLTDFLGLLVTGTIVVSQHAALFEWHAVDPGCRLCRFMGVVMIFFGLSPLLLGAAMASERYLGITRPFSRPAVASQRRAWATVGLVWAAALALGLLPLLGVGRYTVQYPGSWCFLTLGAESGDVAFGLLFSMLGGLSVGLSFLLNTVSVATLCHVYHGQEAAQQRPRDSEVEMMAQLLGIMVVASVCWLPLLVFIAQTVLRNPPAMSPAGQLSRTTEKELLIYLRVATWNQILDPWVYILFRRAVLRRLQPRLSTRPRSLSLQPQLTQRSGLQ

[16] = target: T4, Prostaglandin E2 receptor EP3 subtype (Homo sapiens, UniProt P43115); experiment: Agonist activity at EP3 receptor (unknown origin)
T4 sequence (P43115 whole entry): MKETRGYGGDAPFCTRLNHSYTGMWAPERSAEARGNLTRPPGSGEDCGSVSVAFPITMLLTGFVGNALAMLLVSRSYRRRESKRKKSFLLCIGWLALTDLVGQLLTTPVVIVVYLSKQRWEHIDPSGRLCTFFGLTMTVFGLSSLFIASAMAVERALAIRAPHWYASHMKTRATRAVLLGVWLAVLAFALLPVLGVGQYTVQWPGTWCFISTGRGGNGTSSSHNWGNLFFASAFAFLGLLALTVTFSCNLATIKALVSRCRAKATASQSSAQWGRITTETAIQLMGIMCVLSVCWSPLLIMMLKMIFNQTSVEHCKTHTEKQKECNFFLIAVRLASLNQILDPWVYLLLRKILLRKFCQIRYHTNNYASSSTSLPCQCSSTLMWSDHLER

[17] = target: T4, Prostaglandin E2 receptor EP3 subtype; experiment: Antagonist activity at EP3 receptor (unknown origin)
Prostacyclin receptor [18] = target: T5, Prostacyclin receptor (Homo sapiens, UniProt P43119); experiment: Agonist activity at IP receptor (unknown origin)
Prostacyclin receptor [19] = target: T5, Prostacyclin receptor; experiment: Antagonist activity at IP receptor (unknown origin)
Rattus norvegicus [20] = species on record: Rattus norvegicus; experiment: Toxicity in rat; conditions: in vivo
Canis familiaris = species on record: Canis familiaris; experiment: Toxicity in dog; design: species or system Canis lupus familiaris; conditions: in vivo
Cytochrome P450 1A2 = target: T6, Cytochrome P450 1A2 (Homo sapiens, UniProt P05177); experiment: Inhibition of human CYP1A2; assay type: ADME
T6 sequence (P05177 whole entry): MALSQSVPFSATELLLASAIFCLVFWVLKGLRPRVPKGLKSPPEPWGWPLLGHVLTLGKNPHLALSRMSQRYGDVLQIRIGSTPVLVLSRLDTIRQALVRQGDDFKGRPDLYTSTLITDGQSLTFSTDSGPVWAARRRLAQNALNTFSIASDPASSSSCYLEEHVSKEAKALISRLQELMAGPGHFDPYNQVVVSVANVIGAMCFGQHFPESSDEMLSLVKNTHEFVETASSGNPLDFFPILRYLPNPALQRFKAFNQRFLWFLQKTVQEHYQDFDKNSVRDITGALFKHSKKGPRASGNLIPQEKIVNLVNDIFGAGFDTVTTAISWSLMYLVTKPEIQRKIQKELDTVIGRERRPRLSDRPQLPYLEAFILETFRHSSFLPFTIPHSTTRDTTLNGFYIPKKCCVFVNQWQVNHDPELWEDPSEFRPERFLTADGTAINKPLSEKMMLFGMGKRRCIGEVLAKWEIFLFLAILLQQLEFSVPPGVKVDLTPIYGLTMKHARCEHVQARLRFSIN

Cytochrome P450 2C9 = Cytochrome P450 2C9 (Homo sapiens, UniProt P11712); experiment: Inhibition of human CYP2C9; assay type: ADME
Cytochrome P450 2D6 = Cytochrome P450 2D6 (Homo sapiens, UniProt P10635); experiment: Inhibition of human CYP2D6; assay type: ADME
Cytochrome P450 3A4 = Cytochrome P450 3A4 (Homo sapiens, UniProt P08684); experiment: Inhibition of human CYP3A4; assay type: ADME
[21] = target: T7, Nuclear receptor subfamily 1 group I member 2 (Homo sapiens, UniProt O75469); experiment: Activation of PXR (unknown origin) assessed as CYP3A4 induction; assay type: ADME
T7 sequence (O75469 whole entry): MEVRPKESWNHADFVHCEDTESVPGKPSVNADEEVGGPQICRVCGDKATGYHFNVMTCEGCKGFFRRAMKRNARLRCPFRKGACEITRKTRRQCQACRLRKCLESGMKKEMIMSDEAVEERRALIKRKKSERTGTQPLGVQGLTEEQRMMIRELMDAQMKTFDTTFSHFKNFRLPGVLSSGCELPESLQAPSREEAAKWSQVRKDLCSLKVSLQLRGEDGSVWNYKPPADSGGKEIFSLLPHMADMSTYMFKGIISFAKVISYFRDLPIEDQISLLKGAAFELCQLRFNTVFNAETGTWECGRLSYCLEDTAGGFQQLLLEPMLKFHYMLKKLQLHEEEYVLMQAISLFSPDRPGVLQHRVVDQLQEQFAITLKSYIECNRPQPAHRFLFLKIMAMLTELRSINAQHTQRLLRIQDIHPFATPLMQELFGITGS

[22] = target: T8, Prostaglandin D2 receptor 2 (Homo sapiens) (UniProt Q9Y5Y4)
T8 sequence (whole entry): T1 sequence (Q9Y5Y4 whole entry)
Description: Displacement of [3H]NVP-QAW039 from human DP2 receptor expressed in CHO cell membranes assessed as dissociation half life by TopCount scintillation assay

[23] = target: T1, Prostaglandin D2 receptor 2; experiment: Displacement of [3H]PGD2 from human DP2 receptor expressed in CHO cell membranes after 60 mins by scintillation proximity assay
Rattus norvegicus [24] = experiment: as §1, with “0.1” for “0.03”, “0.3” for “0.1”; assay type: functional, organism-based
[25] = Antagonist activity at DP2 receptor in human whole assessed as inhibition of DK-PGD2-induced eosinophils shape change preincubated for 5 mins followed by DK-PGD2 addition measured after 5 mins by flow cytometry

T5 sequence (P43119 whole entry): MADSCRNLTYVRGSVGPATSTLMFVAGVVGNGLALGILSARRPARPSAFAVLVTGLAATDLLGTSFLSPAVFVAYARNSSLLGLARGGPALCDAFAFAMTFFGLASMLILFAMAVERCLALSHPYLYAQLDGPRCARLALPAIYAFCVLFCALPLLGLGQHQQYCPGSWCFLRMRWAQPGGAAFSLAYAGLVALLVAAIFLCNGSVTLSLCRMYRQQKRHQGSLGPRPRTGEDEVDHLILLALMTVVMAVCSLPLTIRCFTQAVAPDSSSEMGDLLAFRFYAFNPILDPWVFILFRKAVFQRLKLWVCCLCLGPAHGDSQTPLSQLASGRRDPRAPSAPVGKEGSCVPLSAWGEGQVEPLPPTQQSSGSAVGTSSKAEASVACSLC
Sequence of Prostaglandin E2 receptor EP4 subtype (P35408 whole entry): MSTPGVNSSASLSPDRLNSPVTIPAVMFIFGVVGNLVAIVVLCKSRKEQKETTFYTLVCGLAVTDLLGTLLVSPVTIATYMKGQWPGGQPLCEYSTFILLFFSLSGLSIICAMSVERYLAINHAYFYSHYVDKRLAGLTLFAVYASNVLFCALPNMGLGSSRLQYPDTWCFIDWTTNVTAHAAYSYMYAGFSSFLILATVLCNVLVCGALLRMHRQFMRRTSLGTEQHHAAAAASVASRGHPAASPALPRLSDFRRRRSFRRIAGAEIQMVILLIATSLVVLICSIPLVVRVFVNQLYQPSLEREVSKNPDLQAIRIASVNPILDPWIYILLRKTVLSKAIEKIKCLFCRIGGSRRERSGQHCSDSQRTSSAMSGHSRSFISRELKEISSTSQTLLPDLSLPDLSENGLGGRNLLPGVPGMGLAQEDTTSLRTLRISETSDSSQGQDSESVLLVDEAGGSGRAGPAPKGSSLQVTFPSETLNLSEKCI
Sequence of Cytochrome P450 3A4 (P08684 whole entry): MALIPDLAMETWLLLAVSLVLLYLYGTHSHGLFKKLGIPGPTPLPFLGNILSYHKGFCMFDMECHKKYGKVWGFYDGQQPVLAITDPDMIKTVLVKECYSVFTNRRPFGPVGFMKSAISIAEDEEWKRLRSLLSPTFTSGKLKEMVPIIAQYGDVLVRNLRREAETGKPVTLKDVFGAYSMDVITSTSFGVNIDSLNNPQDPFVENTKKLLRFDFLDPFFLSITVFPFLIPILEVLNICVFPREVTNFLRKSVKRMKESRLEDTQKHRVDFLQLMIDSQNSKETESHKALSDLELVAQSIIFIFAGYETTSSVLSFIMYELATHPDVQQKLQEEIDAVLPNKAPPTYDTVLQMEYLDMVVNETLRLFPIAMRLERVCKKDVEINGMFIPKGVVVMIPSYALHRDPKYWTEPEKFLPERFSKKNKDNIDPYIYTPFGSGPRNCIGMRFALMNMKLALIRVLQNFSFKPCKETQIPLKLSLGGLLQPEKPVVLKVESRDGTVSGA
Sequence of Prostaglandin E2 receptor EP2 subtype (P43116 whole entry): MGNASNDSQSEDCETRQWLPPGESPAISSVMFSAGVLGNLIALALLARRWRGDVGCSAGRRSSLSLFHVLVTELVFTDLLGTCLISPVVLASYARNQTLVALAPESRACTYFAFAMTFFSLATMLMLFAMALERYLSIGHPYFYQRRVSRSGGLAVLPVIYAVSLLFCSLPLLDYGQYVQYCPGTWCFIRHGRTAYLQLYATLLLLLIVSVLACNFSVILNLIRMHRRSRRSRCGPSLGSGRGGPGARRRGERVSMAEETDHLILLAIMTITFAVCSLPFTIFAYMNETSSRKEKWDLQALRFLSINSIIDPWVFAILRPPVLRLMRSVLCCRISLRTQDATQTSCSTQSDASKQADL
Sequence of Cytochrome P450 2D6 (P10635 whole entry): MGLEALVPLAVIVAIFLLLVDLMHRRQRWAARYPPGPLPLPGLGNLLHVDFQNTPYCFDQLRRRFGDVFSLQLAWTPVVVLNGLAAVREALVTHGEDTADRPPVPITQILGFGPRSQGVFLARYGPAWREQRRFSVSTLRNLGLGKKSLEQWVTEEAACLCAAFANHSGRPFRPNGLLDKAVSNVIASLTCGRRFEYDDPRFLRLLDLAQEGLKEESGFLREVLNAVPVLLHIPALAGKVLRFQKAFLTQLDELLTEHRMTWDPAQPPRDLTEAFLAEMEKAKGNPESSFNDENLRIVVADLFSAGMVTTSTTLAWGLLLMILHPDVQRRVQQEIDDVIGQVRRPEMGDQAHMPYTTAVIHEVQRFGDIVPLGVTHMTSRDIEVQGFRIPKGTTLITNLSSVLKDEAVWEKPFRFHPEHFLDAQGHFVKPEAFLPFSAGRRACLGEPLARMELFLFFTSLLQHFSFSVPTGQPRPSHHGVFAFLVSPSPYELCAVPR
Sequence of Prostaglandin F2-alpha receptor (P43088 whole entry): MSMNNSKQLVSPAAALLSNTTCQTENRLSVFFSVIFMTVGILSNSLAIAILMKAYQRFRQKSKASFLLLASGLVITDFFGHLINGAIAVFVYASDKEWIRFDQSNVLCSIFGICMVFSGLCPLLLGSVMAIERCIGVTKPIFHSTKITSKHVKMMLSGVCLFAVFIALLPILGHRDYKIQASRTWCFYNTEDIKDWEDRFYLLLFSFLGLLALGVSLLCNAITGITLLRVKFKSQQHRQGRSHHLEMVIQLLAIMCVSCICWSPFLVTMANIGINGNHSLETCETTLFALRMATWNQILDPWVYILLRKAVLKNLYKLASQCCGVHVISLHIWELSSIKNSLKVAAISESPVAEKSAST
Sequence of Cytochrome P450 2C9 (P11712 whole entry): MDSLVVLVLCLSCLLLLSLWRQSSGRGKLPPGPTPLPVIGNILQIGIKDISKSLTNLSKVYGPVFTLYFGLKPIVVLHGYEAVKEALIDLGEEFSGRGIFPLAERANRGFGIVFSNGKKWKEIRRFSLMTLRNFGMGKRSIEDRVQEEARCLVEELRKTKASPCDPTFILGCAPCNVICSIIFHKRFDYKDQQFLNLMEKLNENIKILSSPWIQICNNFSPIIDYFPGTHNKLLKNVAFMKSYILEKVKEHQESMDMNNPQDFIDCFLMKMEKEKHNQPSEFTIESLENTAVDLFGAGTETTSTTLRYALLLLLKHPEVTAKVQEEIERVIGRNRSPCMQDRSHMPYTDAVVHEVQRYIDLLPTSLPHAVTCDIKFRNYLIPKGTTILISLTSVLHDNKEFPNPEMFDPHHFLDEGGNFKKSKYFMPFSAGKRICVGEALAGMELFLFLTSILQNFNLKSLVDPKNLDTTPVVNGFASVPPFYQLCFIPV

## Cc1c(CC(=O)O)c2cccnc2n1Cc1ccc(S(C)(=O)=O)cc1C(F)(F)F [FEVIPIPRANT]
[1]
  IC50: 0.4 nM
Rattus norvegicus [2]
  IC50: 6.5 nM
[3]
  fraction unbound: 0.08
[4]
  clearance: 1.6 mL/min/kg
[5]
  Vd: 1.1 L/kg
[6]
  half-life: 792 min
[7]
  bioavailability: 43%
[8]
  IC50: 2.6 nM
[9]
  IC50: 1.4 nM
[10]
  IC50: 3.1 nM
[11]
  Kd: 1.02 nM
[12]
  IC50: > 10 µM
[13]
  IC50: > 10 µM
[14]
  IC50: > 10 µM
[15]
  IC50: > 10 µM
Thromboxane A2 receptor
  IC50: > 10 µM
[16]
  EC50: > 10 µM
[17]
  IC50: > 10 µM
Prostacyclin receptor [18]
  EC50: > 10 µM
Prostacyclin receptor [19]
  IC50: > 10 µM
Rattus norvegicus [20]
  Activity: Non-Toxic
Canis familiaris
  Activity: Non-Toxic
Cytochrome P450 1A2
  IC50: > 100 µM
Cytochrome P450 2C9
  IC50: > 100 µM
Cytochrome P450 2D6
  IC50: > 100 µM
Cytochrome P450 3A4
  IC50: > 100 µM
[21]
  Activity: Not Active
[22]
  T1/2: 12 min

## Cc1c(CC(=O)O)c2c(Cl)ccnc2n1Cc1ccc(S(C)(=O)=O)cc1
[23]
  Ki: 356 nM
[1]
  IC50: 80 nM

## Cc1ccc2c(CC(=O)O)c(C)n(Cc3ccc(S(C)(=O)=O)cc3)c2n1
[23]
  Ki: 72 nM

## CCS(=O)(=O)c1ccc(Cn2c(C)c(CC(=O)O)c3cccnc32)cc1
[23]
  Ki: 50 nM
[1]
  IC50: 4 nM

## Cc1c(CC(=O)O)c2cccnc2n1Cc1ccc(S(=O)(=O)C(C)C)cc1
[23]
  Ki: 86 nM

## CCS(=O)(=O)c1ccc(Cn2c(C)c(CC(=O)O)c3cccnc32)c(C(F)(F)F)c1
[23]
  Ki: 7 nM
[1]
  IC50: 0.8 nM
[4]
  clearance: 2.9 mL/min/kg
[5]
  Vd: 1.2 L/kg
[6]
  half-life: 552 min
[7]
  bioavailability: 97%

## Cc1c(CC(=O)O)c2ccccc2n1Cc1ccc(S(C)(=O)=O)cc1
[23]
  Ki: 19 nM
[1]
  IC50: 20 nM
[11]
  Kd: 25.1 nM
[22]
  T1/2: 0.18 min

## Cc1c(CC(=O)O)c2cccnc2n1Cc1ccc(C(F)(F)F)cc1C(F)(F)F
[1]
  IC50: 14 nM

## Cc1cc(S(C)(=O)=O)ccc1Cn1c(C)c(CC(=O)O)c2cccnc21
[1]
  IC50: 4 nM

## CCS(=O)(=O)c1ccc(Cn2c(C)c(CC(=O)O)c3cccnc32)c(Cl)c1
[23]
  Ki: 6 nM
[1]
  IC50: 1.3 nM
[4]
  clearance: 4.4 mL/min/kg
[5]
  Vd: 1.1 L/kg
[6]
  half-life: 462 min
[7]
  bioavailability: 71%
[11]
  Kd: 1.91 nM
[22]
  T1/2: 3.36 min

## CCc1ccc2c(CC(=O)O)c(C)n(Cc3ccc(S(C)(=O)=O)cc3)c2n1
[23]
  Ki: 47 nM
[1]
  IC50: 6 nM

## Cc1c(CC(=O)O)c2cccnc2n1Cc1ccc(S(C)(=O)=O)cc1 [QAV680]
[1]
  IC50: 5 nM
Rattus norvegicus [24]
  IC50: 40 nM
[8]
  IC50: 59 nM
[9]
  IC50: 25 nM
[11]
  Kd: 15.1 nM
[22]
  T1/2: 1.29 min
[25]
  IC50: 31 nM

## Cc1cnc2c(c1)c(CC(=O)O)c(C)n2Cc1ccc(S(C)(=O)=O)cc1
[23]
  Ki: 1340 nM

## Cc1c(CC(=O)O)c2cc(Br)cnc2n1Cc1ccc(S(C)(=O)=O)cc1
[23]
  Ki: 735 nM

## Cc1c(CC(=O)O)c2cccnc2n1Cc1ccc(S(C)(=O)=O)c(C(F)(F)F)c1
[23]
  Ki: 31 nM
[1]
  IC50: 4 nM

## Cc1c(CC(=O)O)c2cccnc2n1Cc1ccc(S(C)(=O)=O)cc1Cl
[23]
  Ki: 4 nM
[1]
  IC50: 1.7 nM
